Experimental data reported in publication PMC4891385 (Clinical Drug Investigation, 2016).

Legend:
[1] = no reference given; cited from earlier work
[2] = biological target: T1, OATP1B1 (Homo sapiens, UniProt Q9Y6L6); test: [14C]-lesinurad uptake, substrate test, hOATP1B1 MDCK-II cells; type: in vitro ADME
T1 sequence (Q9Y6L6 1-691): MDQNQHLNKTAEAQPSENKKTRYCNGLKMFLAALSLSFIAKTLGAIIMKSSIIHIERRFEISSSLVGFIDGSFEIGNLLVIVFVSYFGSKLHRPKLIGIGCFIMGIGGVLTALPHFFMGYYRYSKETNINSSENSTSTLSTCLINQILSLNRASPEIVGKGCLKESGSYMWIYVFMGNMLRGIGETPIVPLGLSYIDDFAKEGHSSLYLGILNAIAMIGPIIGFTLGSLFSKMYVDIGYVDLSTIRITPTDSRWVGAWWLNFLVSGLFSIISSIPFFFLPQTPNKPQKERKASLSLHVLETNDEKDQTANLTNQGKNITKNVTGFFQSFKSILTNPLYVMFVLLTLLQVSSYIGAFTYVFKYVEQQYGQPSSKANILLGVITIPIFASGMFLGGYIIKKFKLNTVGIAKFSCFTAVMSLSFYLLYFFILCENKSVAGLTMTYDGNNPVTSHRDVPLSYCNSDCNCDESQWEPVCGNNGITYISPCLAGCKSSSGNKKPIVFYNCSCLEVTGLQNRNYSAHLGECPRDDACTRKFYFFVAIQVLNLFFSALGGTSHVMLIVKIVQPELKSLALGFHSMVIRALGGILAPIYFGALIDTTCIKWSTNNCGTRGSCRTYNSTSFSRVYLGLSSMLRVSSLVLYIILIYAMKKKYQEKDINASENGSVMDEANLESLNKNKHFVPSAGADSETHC

[3] = biological target: P-gp (Homo sapiens, UniProt P08183); test: [14C]-lesinurad substrate test, MDCK-MDR1 cells; type: in vitro ADME
[4] = biological target: T2, OCT1 (Homo sapiens, UniProt O15245); test: [14C]-lesinurad uptake, substrate test, hOCT1 MDCK-II cells; type: in vitro ADME
T2 sequence (O15245 1-554): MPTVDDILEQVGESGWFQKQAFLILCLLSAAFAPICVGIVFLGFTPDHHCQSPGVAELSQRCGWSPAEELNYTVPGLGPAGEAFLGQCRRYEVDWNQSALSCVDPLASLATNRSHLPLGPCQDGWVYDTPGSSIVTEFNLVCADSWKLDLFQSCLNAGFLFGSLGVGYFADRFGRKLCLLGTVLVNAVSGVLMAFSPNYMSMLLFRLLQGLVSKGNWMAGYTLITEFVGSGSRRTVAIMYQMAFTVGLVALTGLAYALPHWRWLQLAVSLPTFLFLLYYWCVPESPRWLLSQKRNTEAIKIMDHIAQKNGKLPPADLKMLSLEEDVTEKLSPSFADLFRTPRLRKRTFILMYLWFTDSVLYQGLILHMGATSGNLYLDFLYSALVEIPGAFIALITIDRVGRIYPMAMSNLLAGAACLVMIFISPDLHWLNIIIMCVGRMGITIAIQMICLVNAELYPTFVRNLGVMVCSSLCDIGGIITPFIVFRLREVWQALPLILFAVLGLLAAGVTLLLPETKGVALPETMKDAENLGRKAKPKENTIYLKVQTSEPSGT

[5] = biological target: T3, OCT2 (Homo sapiens, UniProt O15244); test: [14C]-lesinurad uptake, substrate test, hOCT2 MDCK-II cells; type: in vitro ADME
T3 sequence (O15244 1-555): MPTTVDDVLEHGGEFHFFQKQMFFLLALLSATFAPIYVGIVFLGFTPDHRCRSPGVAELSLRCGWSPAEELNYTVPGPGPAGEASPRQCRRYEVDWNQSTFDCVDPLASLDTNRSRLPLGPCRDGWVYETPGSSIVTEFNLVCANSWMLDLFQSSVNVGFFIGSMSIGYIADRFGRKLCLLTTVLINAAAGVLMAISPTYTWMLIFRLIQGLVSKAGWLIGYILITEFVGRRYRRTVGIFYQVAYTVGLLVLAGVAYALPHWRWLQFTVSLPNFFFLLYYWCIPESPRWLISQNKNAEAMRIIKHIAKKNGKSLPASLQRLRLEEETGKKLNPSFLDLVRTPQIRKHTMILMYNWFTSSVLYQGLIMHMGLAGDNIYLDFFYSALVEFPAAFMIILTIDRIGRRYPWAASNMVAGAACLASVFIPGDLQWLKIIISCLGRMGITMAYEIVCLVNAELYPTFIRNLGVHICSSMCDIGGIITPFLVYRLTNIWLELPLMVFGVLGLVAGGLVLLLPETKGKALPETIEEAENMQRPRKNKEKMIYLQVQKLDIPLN

[6] = biological target: T4, OAT3 (Homo sapiens, UniProt Q8TCC7); test: [14C]-lesinurad uptake, substrate test, OAT3 oocytes; type: in vitro ADME
T4 sequence (Q8TCC7 1-542): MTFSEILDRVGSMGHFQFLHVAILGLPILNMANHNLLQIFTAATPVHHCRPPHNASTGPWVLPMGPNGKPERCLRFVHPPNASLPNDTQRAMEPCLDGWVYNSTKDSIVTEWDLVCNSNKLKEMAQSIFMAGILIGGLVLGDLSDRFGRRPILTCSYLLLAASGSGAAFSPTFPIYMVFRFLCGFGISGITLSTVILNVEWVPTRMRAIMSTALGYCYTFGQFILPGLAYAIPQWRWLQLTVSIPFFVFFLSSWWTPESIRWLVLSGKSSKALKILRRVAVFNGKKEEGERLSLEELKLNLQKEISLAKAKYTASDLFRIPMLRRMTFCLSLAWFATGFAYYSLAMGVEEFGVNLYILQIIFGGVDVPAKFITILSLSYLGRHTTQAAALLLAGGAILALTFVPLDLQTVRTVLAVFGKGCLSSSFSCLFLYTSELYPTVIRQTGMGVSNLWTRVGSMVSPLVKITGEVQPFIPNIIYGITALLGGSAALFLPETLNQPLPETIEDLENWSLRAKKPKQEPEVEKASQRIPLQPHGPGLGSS

Sequence of P-gp (P08183 whole entry): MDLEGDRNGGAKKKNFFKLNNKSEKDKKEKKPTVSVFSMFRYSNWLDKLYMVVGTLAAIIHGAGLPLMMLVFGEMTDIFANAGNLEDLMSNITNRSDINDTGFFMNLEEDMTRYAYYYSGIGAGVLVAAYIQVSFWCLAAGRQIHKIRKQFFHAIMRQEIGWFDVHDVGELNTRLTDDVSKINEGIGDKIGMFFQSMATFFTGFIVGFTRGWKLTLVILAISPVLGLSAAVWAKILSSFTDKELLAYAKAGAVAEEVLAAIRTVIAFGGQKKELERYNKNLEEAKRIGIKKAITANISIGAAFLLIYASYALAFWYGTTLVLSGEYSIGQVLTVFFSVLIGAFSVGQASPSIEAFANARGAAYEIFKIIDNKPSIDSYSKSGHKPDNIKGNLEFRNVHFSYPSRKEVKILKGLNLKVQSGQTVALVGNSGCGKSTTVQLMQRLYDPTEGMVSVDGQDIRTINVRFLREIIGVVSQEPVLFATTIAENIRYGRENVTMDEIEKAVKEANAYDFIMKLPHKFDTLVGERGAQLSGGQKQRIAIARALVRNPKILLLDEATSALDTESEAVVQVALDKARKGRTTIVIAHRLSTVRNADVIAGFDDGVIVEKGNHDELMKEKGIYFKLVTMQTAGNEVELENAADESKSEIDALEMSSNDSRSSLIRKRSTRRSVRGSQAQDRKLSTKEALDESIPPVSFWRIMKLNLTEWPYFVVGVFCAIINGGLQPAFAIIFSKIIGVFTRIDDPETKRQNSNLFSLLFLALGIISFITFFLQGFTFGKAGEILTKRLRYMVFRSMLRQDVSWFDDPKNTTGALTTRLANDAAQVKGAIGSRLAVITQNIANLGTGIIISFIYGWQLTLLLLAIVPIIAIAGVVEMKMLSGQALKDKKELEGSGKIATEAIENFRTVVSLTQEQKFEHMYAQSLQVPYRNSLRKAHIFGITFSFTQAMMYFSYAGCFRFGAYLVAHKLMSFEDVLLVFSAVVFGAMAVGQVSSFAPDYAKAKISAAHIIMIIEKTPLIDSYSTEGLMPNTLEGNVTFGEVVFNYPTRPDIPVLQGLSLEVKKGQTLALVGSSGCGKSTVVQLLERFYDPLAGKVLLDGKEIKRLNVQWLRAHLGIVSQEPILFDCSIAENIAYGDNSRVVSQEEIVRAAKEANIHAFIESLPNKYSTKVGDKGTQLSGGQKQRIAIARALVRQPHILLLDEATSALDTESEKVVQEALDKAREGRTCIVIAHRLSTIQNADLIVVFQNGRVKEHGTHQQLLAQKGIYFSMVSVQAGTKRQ

Lesinurad as substrate [2]: weak substrate
increase in lesinurad uptake in transfected versus non-transfected cells ([2]; lesinurad 10 µM): 2.25 fold
Lesinurad as substrate [3]: not a substrate
Lesinurad as substrate [4]: weak substrate
Lesinurad as substrate [5]: not a substrate
Lesinurad as substrate [6]: substrate
Structure (SMILES): O=C(O)CSc1nnc(Br)n1-c1ccc(C2CC2)c2ccccc12 [lesinurad]
accumulation during multiple once-daily dosing [1]: does not accumulate
